The target in test [1] is T1, PI3K (Homo sapiens, UniProt P48736).
T1 construct: PI3 Kinase γ IC50; other: PI3 Kinase γ; other: PI3 Kinase γ isoform, fluorescence polarization
The test is described as follows: Fluorescence polarization assay for PI3K. It is filed as biochemical. The settings on record: read-out: PI3 Kinase γ IC50. In short, it runs like this: (§1)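 Fluorescence-polarization competition readout: after 30–60 min of PIP2/ATP turnover in 1% DMSO, a stop mix with GST-GRP (70 nM) and red probe (10 nM) was added.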
(Fluorescence polarisation rises when a labelled molecule tumbles more slowly, as on binding a larger partner.)

Test [2] addresses T2, PI3K (Homo sapiens, UniProt P42336).
T2 construct: PI3 Kinase α IC50; other: PI3 Kinase α; other: PI3 Kinase α isoform, fluorescence polarization
The test is described as follows: Fluorescence polarization assay for PI3K. It is filed as biochemical. The settings on record: read-out: PI3 Kinase α IC50. In outline: as §1

Another test concerns the target T3, Human mTOR (FLAG-TOR) (Homo sapiens, UniProt P42345).
T3 construct: FLAG
Nature of the test: Human mTOR kinase assay with purified enzyme, DELFIA format. It is filed as biochemical. In outline:
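DELFIA readout: Eu-anti-P(T389)-S6K antibody (40 ng/mL, 1 h) on captured His6-S6K from the stopped reaction. Kinase step used purified FLAG-tagged human mTOR with test compound in HEPES (pH 7.4)/MnCl2/DTT buffer, 2 h at room temperature (linear 1–6 h), terminated by EDTA/EGTA.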

For another test, the system named is prostate line LNCap. The test is described as follows: In vitro cell culture growth assay (MTS), LNCap. The settings on record: Homo sapiens, LNCaP, 72 h, LNCap cells, three days after drug treatment. It is filed as cell-based. In short, it runs like this: (§2)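 Following a one-day attachment period, cells received inhibitors for 3 days. MTS metabolism by viable cells was quantified at 490 nm absorbance and converted to percent of same-plate vehicle control growth.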

Another test has as its system breast line MDA468. Nature of the test: In vitro cell culture growth assay (MTS), MDA468. The settings on record: Homo sapiens, 72 h, MDA468 cells, three days after drug treatment. It is filed as cell-based. In outline: as §2
Setting [3] is: PI3 Kinase γ isoform, fluorescence polarization.
Setting [4] is: PI3 Kinase α isoform, fluorescence polarization.
Where [5] appears, read: purified human mTOR enzyme, DELFIA format.

Read-outs that look alike come from different tables or passages of the source. A value given as a limit tells only on which side of the number the result lay.

Among the data in patent US8129371B2, “Thienopyrimidine and pyrazolopyrimidine compounds and their use as mTOR kinase and PI3 kinase inhibitors” (Wyeth LLC, priority 2007, dated 2012) are IC50 values, retold here.

T1 sequence (P48736 whole entry, canonical isoform): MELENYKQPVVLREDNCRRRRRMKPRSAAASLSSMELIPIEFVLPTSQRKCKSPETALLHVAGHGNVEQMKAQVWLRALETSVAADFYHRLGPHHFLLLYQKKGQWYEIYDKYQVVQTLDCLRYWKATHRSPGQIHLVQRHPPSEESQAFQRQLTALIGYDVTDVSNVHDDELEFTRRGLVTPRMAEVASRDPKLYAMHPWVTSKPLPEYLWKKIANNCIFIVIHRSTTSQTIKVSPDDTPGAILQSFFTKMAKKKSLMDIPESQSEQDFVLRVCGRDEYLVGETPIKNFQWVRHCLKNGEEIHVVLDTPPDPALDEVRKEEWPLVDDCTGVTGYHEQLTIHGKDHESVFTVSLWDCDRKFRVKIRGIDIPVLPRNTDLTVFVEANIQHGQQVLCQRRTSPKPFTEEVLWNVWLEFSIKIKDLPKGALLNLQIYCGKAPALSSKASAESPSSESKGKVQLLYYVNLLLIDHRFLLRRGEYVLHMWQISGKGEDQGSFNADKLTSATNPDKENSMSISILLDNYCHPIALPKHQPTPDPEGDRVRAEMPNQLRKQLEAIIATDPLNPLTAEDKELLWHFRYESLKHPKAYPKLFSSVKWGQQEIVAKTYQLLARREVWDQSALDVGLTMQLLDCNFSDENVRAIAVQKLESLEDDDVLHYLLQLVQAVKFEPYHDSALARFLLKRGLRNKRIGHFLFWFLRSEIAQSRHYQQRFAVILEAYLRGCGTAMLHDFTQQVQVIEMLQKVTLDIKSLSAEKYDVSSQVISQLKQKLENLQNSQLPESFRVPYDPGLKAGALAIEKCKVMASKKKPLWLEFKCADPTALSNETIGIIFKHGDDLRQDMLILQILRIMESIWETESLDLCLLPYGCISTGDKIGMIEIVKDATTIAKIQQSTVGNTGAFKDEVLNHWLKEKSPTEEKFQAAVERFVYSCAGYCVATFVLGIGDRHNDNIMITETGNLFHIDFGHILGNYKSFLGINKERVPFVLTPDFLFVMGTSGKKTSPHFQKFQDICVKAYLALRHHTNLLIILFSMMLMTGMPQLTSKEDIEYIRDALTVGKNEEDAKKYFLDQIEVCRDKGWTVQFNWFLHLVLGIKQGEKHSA
T2 sequence (P42336 whole entry, canonical isoform): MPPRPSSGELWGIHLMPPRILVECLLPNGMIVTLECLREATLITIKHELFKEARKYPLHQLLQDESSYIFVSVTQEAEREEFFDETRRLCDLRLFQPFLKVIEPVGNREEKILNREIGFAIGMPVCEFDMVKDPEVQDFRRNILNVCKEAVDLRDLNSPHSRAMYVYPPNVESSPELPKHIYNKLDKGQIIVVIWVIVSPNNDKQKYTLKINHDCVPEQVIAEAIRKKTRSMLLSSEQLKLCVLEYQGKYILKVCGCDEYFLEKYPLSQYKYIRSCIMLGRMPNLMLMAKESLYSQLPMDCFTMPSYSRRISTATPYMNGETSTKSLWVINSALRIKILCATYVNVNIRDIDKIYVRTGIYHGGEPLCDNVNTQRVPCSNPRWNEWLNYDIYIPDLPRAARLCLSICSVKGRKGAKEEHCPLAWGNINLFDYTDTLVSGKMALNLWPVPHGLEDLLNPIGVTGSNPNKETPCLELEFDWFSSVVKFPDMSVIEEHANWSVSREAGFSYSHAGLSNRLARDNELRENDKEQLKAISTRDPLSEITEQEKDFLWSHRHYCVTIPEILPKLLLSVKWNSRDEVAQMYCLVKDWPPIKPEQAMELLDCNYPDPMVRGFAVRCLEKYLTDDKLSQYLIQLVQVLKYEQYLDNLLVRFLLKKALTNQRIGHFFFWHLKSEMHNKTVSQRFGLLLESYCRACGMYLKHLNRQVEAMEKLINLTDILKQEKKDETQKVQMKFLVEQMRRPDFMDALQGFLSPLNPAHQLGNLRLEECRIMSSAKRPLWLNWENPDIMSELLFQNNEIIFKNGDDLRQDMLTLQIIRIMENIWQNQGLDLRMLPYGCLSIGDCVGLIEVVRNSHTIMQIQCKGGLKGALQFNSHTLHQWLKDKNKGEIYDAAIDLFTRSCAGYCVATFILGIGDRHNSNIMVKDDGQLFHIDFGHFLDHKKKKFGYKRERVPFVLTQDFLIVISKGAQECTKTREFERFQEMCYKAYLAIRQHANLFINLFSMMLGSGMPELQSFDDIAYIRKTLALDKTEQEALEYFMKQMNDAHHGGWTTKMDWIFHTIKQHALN

As for `CNC(=O)Nc1ccc(-c2nc(N3CC4CCC(C3)O4)c3cnn(C4CCC(NN(C)C)CC4)c3n2)cc1` (stereo not shown) [Example 333, 1-(4-{1-[4-(2,2-dimethylhydrazino)cyclohexyl]-4-(8-oxa-3-azabicyclo[3.2.1]oct-3-yl)-1H-pyrazolo[3,4-d]pyrimidin-6-yl}phenyl)-3-methylurea], the IC50 was found to be 4590 nM on PI3K [1] (setting [3]); 276 nM on PI3K [2] (setting [4]); 0.58 nM against Human mTOR (FLAG-TOR) (setting [5]); 68 nM in the test with prostate line LNCap; 380 nM in the test with breast line MDA468.

Take `CC(C)n1ncc2c(N3CC4CCC(C3)O4)nc(-c3ccc(NC(=O)NCCO)cc3)nc21` [Example 143, 1-(2-hydroxyethyl)-3-{4-[1-isopropyl-4-(8-oxa-3-azabicyclo[3.2.1]oct-3-yl)-1H-pyrazolo[3,4-d]pyrimidin-6-yl]phenyl}urea]: the half-inhibitory concentration (IC50) at PI3K [1] (PI3 Kinase γ) was determined as 4580 nM; on PI3K [2] (PI3 Kinase α), 246 nM; against Human mTOR (FLAG-TOR), 0.076 nM; with prostate line LNCap, 10 nM; in the test on breast line MDA468, 70 nM.

As to `COC(=O)Nc1ccc(-c2nc(N3CC4CCC(C3)O4)c3cnn(C4CCC(O)CC4)c3n2)cc1` (stereo not shown) [Example 137, methyl {4-[1-(4-hydroxycyclohexyl)-4-(8-oxa-3-azabicyclo[3.2.1]oct-3-yl)-1H-pyrazolo[3,4-d]pyrimidin-6-yl]phenyl}carbamate], the half-maximal inhibitory concentration (IC50) at PI3K [1] (PI3 Kinase γ) is above 10000 nM; at PI3K [2] (PI3 Kinase α), 6660 nM; on Human mTOR (FLAG-TOR), 3.75 nM; in the test on prostate line LNCap, 200 nM; in the test with breast line MDA468 it was 1700 nM.

Turning to `O=C(Nc1ccc(-c2nc(N3CC4CCC(C3)O4)c3cnn(C4CCC5(CC4)OCCO5)c3n2)cc1)OCCF` [Example 130, 2-fluoroethyl {4-[1-(1,4-dioxaspiro[4.5]dec-8-yl)-4-(8-oxa-3-azabicyclo[3.2.1]oct-3-yl)-1H-pyrazolo[3,4-d]pyrimidin-6-yl]phenyl}carbamate], the half-inhibitory concentration (IC50) at PI3K [1] (PI3 Kinase γ) is above 10000 nM; at PI3K [2] (PI3 Kinase α), above 10000 nM; on Human mTOR (FLAG-TOR), 1.5 nM; with prostate line LNCap it was 45 nM; in the test on breast line MDA468, 800 nM.

In the case of `CCNC(=O)Nc1ccc(-c2nc(N3CC4CCC(C3)O4)c3cnn(C(C)C)c3n2)cc1` [Example 140, 1-ethyl-3-{4-[1-isopropyl-4-(8-oxa-3-azabicyclo[3.2.1]oct-3-yl)-1H-pyrazolo[3,4-d]pyrimidin-6-yl]phenyl}urea], the IC50 on PI3K [1] (PI3 Kinase γ) worked out at 5900 nM; at PI3K [2] (PI3 Kinase α), 740 nM; against Human mTOR (FLAG-TOR), 0.14 nM; in the test on prostate line LNCap, 1 nM; in the test with breast line MDA468 it was 32 nM.

With `CCn1ncc2c(N3CC4CCC(C3)O4)nc(-c3ccc(NC(=O)N[C@H]4CC[C@H](N)CC4)cc3)nc21` (relative stereo) [Example 230, 1-(trans-4-aminocyclohexyl)-3-{4-[1-ethyl-4-(8-oxa-3-azabicyclo[3.2.1]oct-3-yl)-1H-pyrazolo[3,4-d]pyrimidin-6-yl]phenyl}urea], the half-inhibitory concentration (IC50) on PI3K [1] (PI3 Kinase γ) is above 10000 nM; at PI3K [2] (PI3 Kinase α), 2890 nM; at Human mTOR (FLAG-TOR) it was 15.5 nM; with prostate line LNCap, 1300 nM; in the test on breast line MDA468 it was 1500 nM.

In the case of `CC(C)OC(=O)N1CCC(n2ncc3c(N4CC5CCC(C4)O5)nc(-c4ccc(NC(=O)NC5CC5)cc4)nc32)CC1` [Example 70, isopropyl 4-[6-{4-[(cyclopropylcarbamoyl)amino]phenyl}-4-(8-oxa-3-azabicyclo[3.2.1]oct-3-yl)-1H-pyrazolo[3,4-d]pyrimidin-1-yl]piperidine-1-carboxylate], the half-maximal inhibitory concentration (IC50) was 9500 nM at PI3K [1] (PI3 Kinase γ); 924 nM at PI3K [2] (PI3 Kinase α); 0.44 nM against Human mTOR (FLAG-TOR); 3 nM in the test with prostate line LNCap; 140 nM with breast line MDA468.

Turning to `CNC(=O)Nc1ccc(-c2nc(N3CC4CCC(C3)O4)c3cnn([C@H]4CC[C@H](OC)CC4)c3n2)cc1` (relative stereo) [Example 386, 1-{4-[1-(trans-4-methoxycyclohexyl)-4-(8-oxa-3-azabicyclo[3.2.1]oct-3-yl)-1H-pyrazolo[3,4-d]pyrimidin-6-yl]phenyl}-3-methylurea], the IC50 worked out at 7440 nM on PI3K [1] (setting [3]); 1170 nM on PI3K [2] (setting [4]); 0.375 nM against Human mTOR (FLAG-TOR) (setting [5]); 2 nM with prostate line LNCap; 37 nM with breast line MDA468.

With `CCn1ncc2c(N3CC4CCC(C3)O4)nc(-c3ccc(NC(=O)Nc4ccc(N)nc4)cc3)nc21` [Example 287, 1-(6-aminopyridin-3-yl)-3-{4-[1-ethyl-4-(8-oxa-3-azabicyclo[3.2.1]oct-3-yl)-1H-pyrazolo[3,4-d]pyrimidin-6-yl]phenyl}urea], the IC50 on PI3K [1] (PI3 Kinase γ) turned out to be 1460 nM; on PI3K [2] (PI3 Kinase α), 164 nM; at Human mTOR (FLAG-TOR), 0.41 nM; in the test with prostate line LNCap, 37 nM; in the test on breast line MDA468 it was 200 nM.

`Oc1ccc(Nc2nc(N3CC4CCC(C3)O4)c3cnn(C4CCN(Cc5ccccc5)CC4)c3n2)cc1` [Example 30, 4-{[1-(1-benzylpiperidin-4-yl)-4-(8-oxa-3-azabicyclo[3.2.1]oct-3-yl)-1H-pyrazolo[3,4-d]pyrimidin-6-yl]amino}phenol]: the IC50 is above 10000 nM on PI3K [1] (PI3 Kinase γ); 2450 nM on PI3K [2] (PI3 Kinase α); 260 nM against Human mTOR (FLAG-TOR); 2800 nM in the test with prostate line LNCap; 7600 nM in the test with breast line MDA468.

In the case of `COC1CCC(n2ncc3c(N4CC5CCC(C4)O5)nc(-c4ccc(NC(=O)Nc5ccc(OCCN(C)C)cc5)cc4)nc32)CC1` (stereo not shown) [Example 310, 1-{4-[2-(dimethylamino)ethoxy]phenyl}-3-{4-[1-(4-methoxycyclohexyl)-4-(8-oxa-3-azabicyclo[3.2.1]oct-3-yl)-1H-pyrazolo[3,4-d]pyrimidin-6-yl]phenyl}urea], the 50% inhibitory concentration (IC50) on PI3K [1] (setting [3]) is 2430 nM; on PI3K [2] (setting [4]), 221 nM; against Human mTOR (FLAG-TOR) (setting [5]), 0.495 nM; in the test on prostate line LNCap, below 1 nM; in the test with breast line MDA468, 1 nM.

On to `Cn1ncc2c(N3CC4CCC(C3)O4)nc(-c3ccc(NC(=O)Nc4cccnc4)cc3)nc21` [Example 56, 1-{4-[1-methyl-4-(8-oxa-3-azabicyclo[3.2.1]oct-3-yl)-1H-pyrazolo[3,4-d]pyrimidin-6-yl]phenyl}-3-pyridin-3-ylurea], for which the IC50 was 579 nM at PI3K [1] (PI3 Kinase γ); 227 nM on PI3K [2] (PI3 Kinase α); 0.27 nM against Human mTOR (FLAG-TOR); 0.7 nM in the test with prostate line LNCap; 5 nM in the test on breast line MDA468.

On to `O=C(Nc1ccc(-c2nc(N3CC4CCC(C3)O4)c3cnn(CC(F)(F)F)c3n2)cc1)Nc1cccc(CO)c1` [Example 255, 1-[3-(hydroxymethyl)phenyl]-3-{4-[4-(8-oxa-3-azabicyclo[3.2.1]oct-3-yl)-1-(2,2,2-trifluoroethyl)-1H-pyrazolo[3,4-d]pyrimidin-6-yl]phenyl}urea], for which the IC50 on PI3K [1] (PI3 Kinase γ) turned out to be 730 nM; on PI3K [2] (PI3 Kinase α) it was 105 nM; on Human mTOR (FLAG-TOR) it was 0.595 nM; with prostate line LNCap, 6 nM; in the test on breast line MDA468, 30 nM.

With `COC(=O)N1CCC(n2ncc3c(N4CC5CCC(C4)O5)nc(-c4ccc(NC(=O)OCCN)cc4)nc32)CC1` [Example 114, methyl 4-[6-(4-{[(2-aminoethoxy)carbonyl]amino}phenyl)-4-(8-oxa-3-azabicyclo[3.2.1]oct-3-yl)-1H-pyrazolo[3,4-d]pyrimidin-1-yl]piperidine-1-carboxylate], the 50% inhibitory concentration (IC50) at PI3K [1] (PI3 Kinase γ) is 7480 nM; at PI3K [2] (PI3 Kinase α) it was 1430 nM; against Human mTOR (FLAG-TOR) it was 36.5 nM; in the test with prostate line LNCap it was 4000 nM; in the test with breast line MDA468, 6000 nM.

Regarding `O=C(Nc1ccc(-c2nc(N3CC4CCC(C3)O4)c3cnn(C4CCC5(CCCO5)CC4)c3n2)cc1)NC1CC1` (single isomer, unassigned) [Example 316, 1-cyclopropyl-3-(4-{4-(8-oxa-3-azabicyclo[3.2.1]oct-3-yl)-1-[(5r,8r)-1-oxaspiro[4.5]dec-8-yl]-1H-pyrazolo[3,4-d]pyrimidin-6-yl}phenyl)urea], the IC50 at PI3K [1] (setting [3]) was above 10000 nM; on PI3K [2] (setting [4]), 4560 nM; on Human mTOR (FLAG-TOR) (setting [5]), 0.495 nM; in the test with prostate line LNCap, 7 nM; with breast line MDA468, 160 nM.

For the compound `COCCOC(=O)Nc1ccc(-c2nc(N3CC4CCC(C3)O4)c3cnn(C4CCN(C(=O)OC)CC4)c3n2)cc1` [Example 113, methyl 4-[6-(4-{[(2-methoxyethoxy)carbonyl]amino}phenyl)-4-(8-oxa-3-azabicyclo[3.2.1]oct-3-yl)-1H-pyrazolo[3,4-d]pyrimidin-1-yl]piperidine-1-carboxylate], the IC50 at PI3K [1] (PI3 Kinase γ) is above 10000 nM; at PI3K [2] (PI3 Kinase α), 7510 nM; on Human mTOR (FLAG-TOR), 225 nM; with prostate line LNCap it was 2700 nM; with breast line MDA468, 30000 nM.

Turning to `COC(=O)Nc1ccc(-c2nc(N3CC4CCC(C3)O4)c3cnn(C4CCN(C(=O)OC)CC4)c3n2)cc1` [Example 119, methyl 4-[6-{4-[(methoxycarbonyl)amino]phenyl}-4-(8-oxa-3-azabicyclo[3.2.1]oct-3-yl)-1H-pyrazolo[3,4-d]pyrimidin-1-yl]piperidine-1-carboxylate], the 50% inhibitory concentration (IC50) on PI3K [1] (PI3 Kinase γ) is above 10000 nM; on PI3K [2] (PI3 Kinase α), 4670 nM; against Human mTOR (FLAG-TOR), 3.6 nM; in the test with prostate line LNCap it was 180 nM; in the test with breast line MDA468 it was 1200 nM.

The term IC50 denotes the concentration at which inhibition is half-maximal.
